Laboratory results taken from paper PMC3660081 (Annals of Oncology, 2013).
“Also recorded” adds a separate entry of the source.

Key:
[1] = cited from earlier work
UGT1A1 = details: cited from earlier work
[2] = test system: colorectal cancer after progression on standard therapy; details: versus best supportive care 5.0 months; cited from earlier work
[3] = test system: heavily pretreated colorectal cancer; details: single-agent regorafenib; cited from earlier work
[4] = Drug-related treatment-emergent adverse events; type: in vivo, human; details: for Administration interrupted (omitted) / Dose reduction due to adverse events: % of administered cycles
UGT1A9 = details: cited from earlier work
[5] = Pharmacokinetics of chemotherapy components before; details: for Effect of regorafenib on pharmacokinetics/exposure, in words: cycle 2 versus cycle 1; for Cmax in cycle 2 versus cycle 1, in words: following regorafenib dosing
[6] = Cycle 1 day 1, before regorafenib dosing
[7] = Cycle 2 day 1, after regorafenib dosing
[8] = after versus before regorafenib dosing

CNC(=O)c1cc(Oc2ccc(NC(=O)Nc3ccc(Cl)c(C(F)(F)F)c3)c(F)c2)cc[n+]1[O-] [M2]
Half-life [1]: 26 to 28 h

CNC(=O)c1cc(Oc2ccc(NC(=O)Nc3ccc(Cl)c(C(F)(F)F)c3)c(F)c2)ccn1 [Regorafenib]
Inhibition of UGT1A1, in words (UGT1A1): strong inhibitor | Overall survival (OS) [2]: 6.4 months | Stable disease [3]: 19 of 27 | Half-life [1]: 25 h | Tolerability in combination with chemotherapy (FOLFOX or FOLFIRI), in words ([4]; regorafenib 160 mg once daily days 4–10 and 18–24): acceptable tolerability | Inhibition of UGT1A9, in words (UGT1A9): strong inhibitor

CCc1c2c(nc3ccc(O)cc13)-c1cc3c(c(=O)n1C2)COC(=O)[C@]3(O)CC [SN-38]
AUC, geometric mean [5, 6]: 0.4 mg·h/L | t½, geometric mean [5, 6]: 16.8 h | AUC, geometric mean [5, 7]: 0.5 mg·h/L | t½, geometric mean [5, 7]: 19.3 h | AUC ratio (90% CI) Cycle 2/Cycle 1 [5, 8]: 1.44 | Cmax ratio (90% CI) Cycle 2/Cycle 1 [5, 8]: 0.91 (0.55–1.50) | Effect of regorafenib on pharmacokinetics/exposure, in words [5]: increased exposure; also recorded: increased significantly | Cmax in cycle 2 versus cycle 1, in words [5]: unchanged

NC(=O)c1cc(Oc2ccc(NC(=O)Nc3ccc(Cl)c(C(F)(F)F)c3)c(F)c2)cc[n+]1[O-] [M5]
Half-life [1]: 51 to 64 h

CCc1c2c(nc3ccc(OC(=O)N4CCC(N5CCCCC5)CC4)cc13)-c1cc3c(c(=O)n1C2)COC(=O)[C@]3(O)CC [Irinotecan, irinotecan]
AUC ratio (90% CI) Cycle 2/Cycle 1 [5, 8]: 1.28 | Cmax ratio (90% CI) Cycle 2/Cycle 1 [5, 8]: 1.22 (0.80–1.85) | Effect of regorafenib on pharmacokinetics/exposure, in words [5]: increased exposure; also recorded: increased significantly | Cmax in cycle 2 versus cycle 1, in words [5]: only slightly increased | AUC ([5]; human, in vivo, geometric mean, Cycle 1 day 1, before regorafenib dosing): 10700 ng·h/mL | AUC ([5]; human, in vivo, geometric mean, Cycle 2 day 1, after regorafenib dosing): 13800 ng·h/mL | Cmax ([5]; human, in vivo, Cmax, geometric mean, Cycle 1 day 1, before regorafenib dosing): 1900 ng/mL | Administration interrupted (omitted) [4]: 5% | Dose reduction due to adverse events [4]: 12%

O=c1[nH]cc(F)c(=O)[nH]1 [5-fluorouracil]
Cmax ratio (90% CI) Cycle 2/Cycle 1 ([5]; FOLFIRI regimen): 0.92 (0.06–13.9) | t½, geometric mean ([5]; FOLFIRI regimen, Cycle 1, before regorafenib dosing): 0.2 H | AUC ratio (90% CI) Cycle 2/Cycle 1 ([5]; FOLFOX regimen): 1.06 (0.69–1.64) | Cmax ratio (90% CI) Cycle 2/Cycle 1 ([5]; FOLFOX regimen): 0.89 (0.50–1.61) | t½, geometric mean ([5]; FOLFOX regimen, Cycle 1, before regorafenib dosing): 0.4 H | t½, geometric mean ([5]; FOLFOX regimen, Cycle 2, after regorafenib dosing): 2.4 H | Effect of regorafenib on pharmacokinetics/exposure, in words [5]: no significant effect | Administration interrupted (omitted) [4]: 8% | Dose reduction due to adverse events [4]: 18%

O=C1[O][Pt]2([NH][C@@H]3CCCC[C@H]3[NH]2)[O]C1=O [Oxaliplatin, oxaliplatin]
Effect of regorafenib on pharmacokinetics/exposure, in words [5]: no significant effect | Administration interrupted (omitted) [4]: 11% | Dose reduction due to adverse events [4]: 11%
